Test results reported in US20100267561A1, “HERBICIDAL PYRIDAZINONE DERIVATIVES” (priority 2007, published 2010).
Like-named read-outs stand apart in the source and are kept apart here.

How the values were obtained:
Experiment in all cases: Test B pre-/postemergence plant response
Format in all cases: in vivo
[1] = tested on: yellow nutsedge (Cyperus esculentus); conditions: Cyperus, read-out: Plant response rating, Nutsedge, Yellow; for pest or weed control at 31 g/ha: 31 g ai/ha, 100 complete control; for pest or weed control at 62 g/ha: 62 g ai/ha; for pest or weed control at 250 g/ha: 250 g ai/ha
Method in brief: (§1)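 Preemergence and postemergence (plants 2-18 cm, 1- to 4-leaf stage) applications used test chemicals in a non-phytotoxic solvent with surfactant. Plants were held in a greenhouse 13 to 15 days, then rated visually against controls on a 0-100 scale (0 no effect, 100 complete control).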

kochia (Kochia scoparia) = tested on: kochia (Kochia scoparia)
Method in brief: as §1

[2] = tested on: cocklebur (Xanthium strumarium); conditions: Xanthium strumarium, read-out: Plant response rating, Cocklebur; for pest or weed control at 31 g/ha: 31 g ai/ha, 100 complete control; for pest or weed control at 62 g/ha: 62 g ai/ha; for pest or weed control at 62 g/ha / pest or weed control at 125 g/ha / pest or weed control at 250 g/ha: scale 0 to 100; for pest or weed control at 125 g/ha: 125 g ai/ha; for pest or weed control at 250 g/ha: 250 g ai/ha
Method in brief: as §1

[3] = tested on: lambsquarters (Chenopodium album); conditions: Chenopodium album, read-out: Plant response rating, Lambsquarters; for pest or weed control at 31 g/ha: 31 g ai/ha, 100 complete control; for pest or weed control at 62 g/ha: 62 g ai/ha; for pest or weed control at 62 g/ha / pest or weed control at 125 g/ha / pest or weed control at 250 g/ha: scale 0 to 100; for pest or weed control at 125 g/ha: 125 g ai/ha; for pest or weed control at 250 g/ha: 250 g ai/ha
Method in brief: as §1

wild oat (Avena fatua) = conditions: Avena fatua, read-out: Plant response rating, Oat, Wild; for pest or weed control at 31 g/ha: 31 g ai/ha, 100 complete control; for pest or weed control at 62 g/ha: 62 g ai/ha; for pest or weed control at 62 g/ha / pest or weed control at 125 g/ha / pest or weed control at 250 g/ha: scale 0 to 100; for pest or weed control at 125 g/ha: 125 g ai/ha; for pest or weed control at 250 g/ha: 250 g ai/ha
Method in brief: as §1

[4] = tested on: eastern black (E.B.) nightshade (Solanum ptycanthum); conditions: Solanum, pre-emergence, Preemergence, read-out: Plant response rating, Nightshade, E. B.
Method in brief: as §1

[5] = tested on: green foxtail (Setaria viridis); conditions: Setaria viridis, read-out: Plant response rating, Foxtail, Green; for pest or weed control at 31 g/ha: 31 g ai/ha, 100 complete control
Method in brief: as §1

[6] = post-emergence, Postemergence, scale 0 to 100, 0 no effect
[7] = post-emergence, Postemergence, scale 0 to 100
[8] = post-emergence, Postemergence, 125 g ai/ha, scale 0 to 100
[9] = pre-emergence, Preemergence, 0 to 100 scale, 0 no effect
[10] = pre-emergence, Preemergence, scale 0 to 100

Question: `Cc1cc(-c2ccc(C(F)(F)F)cc2)nn1-c1c(O)cnn(C)c1=O` [Compound 1, 5-hydroxy-2-methyl-4-[5-methyl-3-[4-(trifluoromethyl)phenyl]-1H-pyrazol-1-yl]-3(2H)-pyridazinone] was tested. Which pest or weed control at 31 g/ha [1, 6] did it give?
Answer: 0%

Question: And the pest or weed control at 62 g/ha [1, 7]?
Answer: 0%

Question: What about the pest or weed control at 125 g/ha [1, 8] of the same molecule?
Answer: 0%

Question: And the pest or weed control at 250 g/ha [1, 7]?
Answer: 0%

Question: And the pest or weed control at 31 g/ha [1, 9]?
Answer: 0%

Question: What about the pest or weed control at 62 g/ha [1, 10] of the same molecule?
Answer: 0%

Question: And the pest or weed control at 250 g/ha [1, 10]?
Answer: 0%

Question: What about the “Plant response rating, Kochia” value (kochia (Kochia scoparia); Postemergence, 31 g ai/ha, scale 0 to 100, 0 no effect, 100 complete control) of the same molecule?
Answer: 0

Question: And the “Plant response rating, Kochia” value (kochia (Kochia scoparia); Postemergence, 62 g ai/ha, scale 0 to 100)?
Answer: 0

Question: What about the “Plant response rating, Kochia” value (kochia (Kochia scoparia); Postemergence, 125 g ai/ha, scale 0 to 100) of the same molecule?
Answer: 0

Question: And the “Plant response rating, Kochia” value (kochia (Kochia scoparia); Postemergence, 250 g ai/ha, scale 0 to 100)?
Answer: 20

Question: What about the “Plant response rating, Kochia” value (kochia (Kochia scoparia); Preemergence, 62 g ai/ha, scale 0 to 100) of the same molecule?
Answer: 0

Question: What about the “Plant response rating, Kochia” value (kochia (Kochia scoparia); Preemergence, 125 g ai/ha, scale 0 to 100) of the same molecule?
Answer: 20

Question: And the pest or weed control at 31 g/ha [2, 6]?
Answer: 0%

Question: And the pest or weed control at 62 g/ha ([2]; post-emergence, Postemergence)?
Answer: 0%

Question: What about the pest or weed control at 125 g/ha ([2]; post-emergence, Postemergence) of the same molecule?
Answer: 0%

Question: And the pest or weed control at 250 g/ha ([2]; post-emergence, Postemergence)?
Answer: 0%

Question: And the pest or weed control at 31 g/ha [2, 9]?
Answer: 0%

Question: What about the pest or weed control at 62 g/ha ([2]; pre-emergence, Preemergence) of the same molecule?
Answer: 0%

Question: What about the pest or weed control at 125 g/ha ([2]; pre-emergence, Preemergence) of the same molecule?
Answer: 0%

Question: And the pest or weed control at 250 g/ha ([2]; pre-emergence, Preemergence)?
Answer: 0%

Question: And the pest or weed control at 31 g/ha [3, 6]?
Answer: 0%

Question: What about the pest or weed control at 62 g/ha ([3]; post-emergence, Postemergence) of the same molecule?
Answer: 0%

Question: What about the pest or weed control at 125 g/ha ([3]; post-emergence, Postemergence) of the same molecule?
Answer: 40%

Question: What about the pest or weed control at 250 g/ha ([3]; post-emergence, Postemergence) of the same molecule?
Answer: 50%

Question: What about the pest or weed control at 31 g/ha [3, 9] of the same molecule?
Answer: 0%

Question: What about the pest or weed control at 62 g/ha ([3]; pre-emergence, Preemergence) of the same molecule?
Answer: 0%

Question: What about the pest or weed control at 125 g/ha ([3]; pre-emergence, Preemergence) of the same molecule?
Answer: 0%

Question: What about the pest or weed control at 250 g/ha ([3]; pre-emergence, Preemergence) of the same molecule?
Answer: 0%

Question: What about the pest or weed control at 31 g/ha (wild oat (Avena fatua); [6]) of the same molecule?
Answer: 90%

Question: And the pest or weed control at 62 g/ha (wild oat (Avena fatua); post-emergence, Postemergence)?
Answer: 100%

Question: And the pest or weed control at 125 g/ha (wild oat (Avena fatua); post-emergence, Postemergence)?
Answer: 100%

Question: What about the pest or weed control at 250 g/ha (wild oat (Avena fatua); post-emergence, Postemergence) of the same molecule?
Answer: 100%

Question: And the pest or weed control at 31 g/ha (wild oat (Avena fatua); [9])?
Answer: 60%

Question: And the pest or weed control at 62 g/ha (wild oat (Avena fatua); pre-emergence, Preemergence)?
Answer: 85%

Question: What about the pest or weed control at 125 g/ha (wild oat (Avena fatua); pre-emergence, Preemergence) of the same molecule?
Answer: 90%

Question: What about the pest or weed control at 250 g/ha (wild oat (Avena fatua); pre-emergence, Preemergence) of the same molecule?
Answer: 98%

Question: What about the pest or weed control at 31 g/ha ([4]; 31 g ai/ha, 0 to 100 scale, 0 no effect, 100 complete control) of the same molecule?
Answer: 0%

Question: And the pest or weed control at 62 g/ha ([4]; 62 g ai/ha, scale 0 to 100)?
Answer: 0%

Question: And the pest or weed control at 125 g/ha ([4]; 125 g ai/ha, scale 0 to 100)?
Answer: 0%

Question: And the pest or weed control at 250 g/ha ([4]; 250 g ai/ha, scale 0 to 100)?
Answer: 0%

Question: What about the pest or weed control at 31 g/ha [5, 6] of the same molecule?
Answer: 95%

Question: And the pest or weed control at 62 g/ha ([5]; post-emergence, Postemergence, 62 g ai/ha, scale 0 to 100)?
Answer: 100%

Question: And the pest or weed control at 125 g/ha [5, 8]?
Answer: 100%

Question: What about the pest or weed control at 250 g/ha ([5]; post-emergence, Postemergence, 250 g ai/ha, scale 0 to 100) of the same molecule?
Answer: 100%

Question: And the pest or weed control at 31 g/ha [5, 9]?
Answer: 100%
